# Values quoted from earlier work as cited in patent US6641611B2, “Therapeutic coating for an intravascular implant” (priority 2001, dated 2003).
# Where two headings read alike, the source gives them in different places.
# What was measured:
# [1] = for diabetes: high doses
smiles,measurement,setting,value
CO[C@H]1C[C@@H]2CC[C@@H](C)[C@@](O)(O2)C(=O)C(=O)N2CCCC[C@H]2C(=O)O[C@H]([C@H](C)C[C@@H]2CC[C@@H](O)[C@H](OC)C2)CC(=O)[C@H](C)/C=C(\C)[C@@H](O)[C@@H](OC)C(=O)[C@H](C)C[C@H](C)/C=C/C=C/C=C/1C [rapamycin],tolerability,fixed high dose monotherapy,well tolerated
same,increase in rapamycin levels in combination compared to rapamycin alone,"monkeys, fixed doses of both drugs in combination",5 fold
same,diabetes,[1]; nonhuman primates,not
same,diabetes,[1]; rats,causes diabetes
same,body weight effect,[1]; several species,weight loss
